From US20230145868A1, “UREA INHIBITORS OF MICRO-RNA” (Board of Regents, The University of Texas System, priority 2020, published 2023)

Tests used:
miR-10b [1] = experiment: Luciferase reporter assay of miR-10b inhibition, MCF7 cells; format: cell-based; details: Homo sapiens, MCF7, 48 h
From the text: (§1) To identify miR-10b inhibitors, a luciferase reporter system was designed with complementary oligonucleotides for miR-10b.This luciferase reporter would repress Renilla luciferase signal in the presence of a functional mature miR-10b. However, in the presence of a small molecule that can inhibit mature miR-10b expression or affect its downstream function, the luciferase expression is restored again.
(§2) The PsiCHECK™-2 luciferase reporter vector was acquired from Promega™, Complementary oligonucleotides for hsa-miR-10b were designed based on the mature miRNA sequence and obtained from Thermo Fisher Scientific. In the design of the microRNA target sequence, several base pairs were added to have two different restriction sites recognizable by the enzyme SgfI at one side, and PmeI on the other (present in the vector as well). In addition, the insert was designed with a restriction site for SacI enzyme in order to have an additional site to digest the vector when monitoring colonies for the presence/absence of the insert. The designed oligonucleotides were annealed as follows: Complementary strands were mixed at a 1:1 molar ratio in a micro centrifuge tube. The mixture was diluted to a final concentration of 1 pmol/μl with a buffer solution of 10 mM Tris, 1 mM EDTA, and 50 mM NaCl (pH 8.0). Mixes were incubated at 95° C. for 5 min, and then the heat was reduced gradually for 70 min, until reaching 4° C. The annealed oligonucleotides were digested along with the PsiCHECK™2 vector with SgfI and PmeI and ligated at the 3′-UTR (downstream) of the Renilla luciferase reporter gene in the PsiCHECK™-2vector. Insert sequences were further confirmed in two ways: enzymatic digestion and sequencing.
(§3) MCF7 cells were seeded 24 h prior to transfection in 96 well plates (2.0×10^4 cells/well). For testing the sensitivity of the assay, antagomiRs and pre-miRs against miR-10b were used at a final concentration of 100 nM. For testing small molecule miRNA inhibitors, the compounds of interest were added to a final concentration of 10 μM. The assay was done in MCF7 or MDA-MB-231 cells at approximately 60% confluence using Lipofectamine in Opti-Mem media with the final vector concentration of 250 ng/mL. All transfections were performed in triplicate for statistical analysis. The cells were incubated at 37° C. for 6 h, followed by replacement of the transfected media with fresh media. After 48 h incubation, the media was removed, and cells were lysed and assayed with a Dual Luciferase Assay Kit (Promega) using a Vi-Tech luminometer. The ratio of Renilla to firefly luciferase expression was calculated for each of the triplicates.

miR-10b [2] = experiment: Luciferase reporter assay of miR-10b inhibition, MDA-MB-231 cells; format: cell-based; details: Homo sapiens, MDA-MB-231, 48 h
From the text: as §1, §2, §3

[3] = Microsomal stability assay, mouse; format: in vitro ADME; details: mouse, liver microsomes, pH 7.4, mouse liver microsomes; 1 μM test compound; unit printed in b356 only
Experimental: (§4) The liver microsomal incubation mixture was composed of liver microsomes (with a concentration of 0.5 mg microsomal protein/ml), the test compound (1 μM), MgCl2 (3 mM), EDTA (1 mM) in potassium phosphate buffer (100 mM, pH 7.4). Control substrates used were Midazolam and Ketanserin. The reaction was initiated with the addition of an NADPH regeneration solution (1.3 mM NADPH) and maintained at 37° C. with shaking. At five sequential time points ranging from 0 to 45 min, aliquots of the mixture (50 μL) were removed and quenched with acetonitrile (100 μL) containing an internal standard control (imipramine) Samples were analyzed after vortexing and centrifugation by liquid chromatography-mass spectrometry (LC-MS/MS). The in vitro t1/2 was then calculated and clearance followed literature.

[4] = Microsomal stability assay, rat; format: in vitro ADME; details: rat, liver microsomes, pH 7.4, rat liver microsomes; 1 μM test compound; unit printed in b356 only
Experimental: as §4

[5] = Microsomal stability assay, human; format: in vitro ADME; details: pH 7.4; human liver microsomes; 1 μM test compound; unit printed in b356 only
Experimental: as §4

`Cc1ccc(F)c(NC(=O)Nc2ccc(-c3cccc4[nH]nc(N)c34)cc2)c1` [Example 10, 1-(4-(3-amino-1H-indazol-4-yl)phenyl)-3-(2-fluoro-5-methylphenyl)urea, reference compound] showed a fold induction at 10 µM (miR-10b [1]; Table 3, MCF7, 10 μM compound, vs negative control (DMSO), mean of triplicate, read-out: n-fold increase in luciferase expression, Mean) of 2.5, a fold induction at 10 µM (miR-10b [1]; Table 3, MCF7, 10 μM compound, vs negative control (DMSO), replicate #1, read-out: n-fold increase in luciferase expression, #1) of 2.74 and a fold induction at 10 µM (miR-10b [1]; Table 3, MCF7, 10 μM compound, vs negative control (DMSO), replicate #2, read-out: n-fold increase in luciferase expression, #2) of 2.52. For the same compound, the fold induction at 10 µM (miR-10b [1]; Table 3, MCF7, 10 μM compound, vs negative control (DMSO), replicate #3, read-out: n-fold increase in luciferase expression, #3) was 2.25, the fold induction at 10 µM (miR-10b [1]; Table 4, MCF7, 10 μM compound, vs negative control (DMSO), mean of triplicate, read-out: n-fold increase in luciferase expression, Mean) was 1.97 and the fold induction at 10 µM (miR-10b [1]; Table 4, MCF7, 10 μM compound, vs negative control (DMSO), replicate #1, read-out: n-fold increase in luciferase expression, #1) was 2.56. The fold induction at 10 µM (miR-10b [1]; Table 4, MCF7, 10 μM compound, vs negative control (DMSO), replicate #2, read-out: n-fold increase in luciferase expression, #2) was 1.58, the fold induction at 10 µM (miR-10b [1]; Table 4, MCF7, 10 μM compound, vs negative control (DMSO), replicate #3, read-out: n-fold increase in luciferase expression, #3) was 1.78 and the fold induction at 10 µM (miR-10b [1]; Table 6, MCF7, second biological replicant, 10 μM compound, mean of triplicate, read-out: n-fold increase in luciferase expression, Mean) was 17.9. It also gave a fold induction at 10 µM (miR-10b [1]; Table 6, MCF7, second biological replicant, 10 μM compound, replicate #1, read-out: n-fold increase in luciferase expression, #1) of 25.6, a fold induction at 10 µM (miR-10b [1]; Table 6, MCF7, second biological replicant, 10 μM compound, replicate #2, read-out: n-fold increase in luciferase expression, #2) of 14.6 and a fold induction at 10 µM (miR-10b [1]; Table 6, MCF7, second biological replicant, 10 μM compound, replicate #3, read-out: n-fold increase in luciferase expression, #3) of 13.4. The fold induction at 10 µM (miR-10b [2]; Table 5, MDA-MB-231, 10 μM compound, vs negative control (DMSO), mean of triplicate, read-out: n-fold increase in luciferase expression, Mean) was 1.87, the fold induction at 10 µM (miR-10b [2]; Table 5, MDA-MB-231, 10 μM compound, vs negative control (DMSO), replicate #1, read-out: n-fold increase in luciferase expression, #1) was 1.51 and the fold induction at 10 µM (miR-10b [2]; Table 5, MDA-MB-231, 10 μM compound, vs negative control (DMSO), replicate #2, read-out: n-fold increase in luciferase expression, #2) was 1.14. It also gave a fold induction at 10 µM (miR-10b [2]; Table 5, MDA-MB-231, 10 μM compound, vs negative control (DMSO), replicate #3, read-out: n-fold increase in luciferase expression, #3) of 2.95, a fold induction at 10 µM (miR-10b [2]; Table 7, MDA-MB-231, second biological replicant, 10 μM compound, mean of triplicate, read-out: n-fold increase in luciferase expression, Mean) of 1.97 and a fold induction at 10 µM (miR-10b [2]; Table 7, MDA-MB-231, second biological replicant, 10 μM compound, replicate #1, read-out: n-fold increase in luciferase expression, #1) of 2.99. It also gave a fold induction at 10 µM (miR-10b [2]; Table 7, MDA-MB-231, second biological replicant, 10 μM compound, replicate #2, read-out: n-fold increase in luciferase expression, #2) of 2.24, a fold induction at 10 µM (miR-10b [2]; Table 7, MDA-MB-231, second biological replicant, 10 μM compound, replicate #3, read-out: n-fold increase in luciferase expression, #3) of 0.69 and a CLint scaled at 1 μM [3] of 86.5 mL/min/kg. It also gave a half-life at 1 μM [3] of 1.05 h, a CLint scaled at 1 μM [4] of 20.4 mL/min/kg and a half-life at 1 μM [4] of 2.03 h. For the same compound, the CLint scaled at 1 μM [5] was 8.8 mL/min/kg and the half-life at 1 μM [5] was 3.28 h.
